Test results taken from US8741879B2, “Petroleum jelly-free unguent compositions comprising vitamin D compounds and optionally steroidal anti-inflammatory agents” (Galderma S.A., priority 2006, dated 2014).

Assays:
[1] = Stability of calcitriol 30 ppm solution in absolute ethanol with 0.02% BHT (HPLC assay against a reference substance); format: physicochemical; details: 30 ppm in absolute ethanol
From the text: b) Stability of Calcitriol in Ethanol: Calcitriol solution 30 ppm in qs 100% absolute ethanol in the presence of 0.02% BHT. Assay technique by HPLC against a reference substance. The starting time (T0) is considered to be 100%.

[2] = Solubility of clobetasol propionate in solvents (HPLC); format: physicochemical
From the text: a) Solubility of Clobetasol Propionate:

SMILES	Calcitriol remaining (T0 = 100%) ([1]; +4° C., T1week) [%]	Calcitriol remaining (T0 = 100%) ([1]; +4° C., T2weeks) [%]	Calcitriol remaining (T0 = 100%) ([1]; +4° C., T3weeks) [%]	Calcitriol remaining (T0 = 100%) ([1]; +4° C., T4weeks) [%]	Calcitriol remaining (T0 = 100%) ([1]; +30° C., T2weeks) [%]	Calcitriol remaining (T0 = 100%) ([1]; +30° C., T4weeks) [%]	Calcitriol remaining (T0 = 100%) ([1]; −18° C., T1week) [%]	Calcitriol remaining (T0 = 100%) ([1]; −18° C., T2weeks) [%]	Calcitriol remaining (T0 = 100%) ([1]; −18° C., T3weeks) [%]	Calcitriol remaining (T0 = 100%) ([1]; −18° C., T4weeks) [%]	Solubility ([2]; in Ethanol 96) [mg/g]	Solubility ([2]; in Propylene glycol) [mg/g]	Solubility ([2]; in Transcutol) [mg/g]
C=C1/C(=C\C=C2/CCC[C@]3(C)[C@@H]([C@H](C)CCCC(C)(C)O)CC[C@@H]23)C[C@@H](O)C[C@@H]1O [Calcitriol, calcitriol]	97.7	98.6	98.1	97.7	93.4	93.0	100.9	100.5	99.5	99.5	–	–	–
CCC(=O)O[C@]1(C(=O)CCl)[C@@H](C)C[C@H]2[C@@H]3CCC4=CC(=O)C=C[C@]4(C)[C@@]3(F)[C@@H](O)C[C@@]21C [Clobetasol Propionate, clobetasol 17-propionate]	–	–	–	–	–	–	–	–	–	–	50.40	9.10	120.70
